Experimental data published in patent US8217023B2, “19-nor-vitamin D analogs with 1,2- or 3,2-cyclopentene ring” (Wisconsin Alumni Research Foundation, priority 2009, dated 2012).
Entries after “also recorded” stand apart in the source; their conditions may differ. Like-named read-outs stand apart in the source and are kept apart here.

Tests used:
[1] = test system: 24-hydroxylase (24Ohase) gene promoter in ROS 17/2.8 (bone) cells; assay: In vitro transcription assay (24-hydroxylase promoter luciferase reporter); type: cell-based; details: for EC50: 24-hydroxylase (CYP-24) promoter driving luciferase reporter, read-out: EC50, transcriptional activity in bone cells; for transcriptional activity in bone cells (in words): FIG. 3
Procedure: Transcription activity was measured in ROS 17/2.8 (bone) cells that were stably transfected with a 24-hydroxylase (24Ohase) gene promoter upstream of a luciferase reporter gene (Arbour et al., 1998). Cells were given a range of doses. Sixteen hours after dosing the cells were harvested and luciferase activities were measured using a luminometer.
RLU=relative luciferase units.

[2] = test system: Human promyelocytic leukemia (HL60) cells; assay: HL-60 differentiation (nitro blue tetrazolium reduction); type: cell-based; details: for EC50: HL-60 cells into monocytes, read-out: EC50, HL-60 cell differentiation
Procedure: The study drugs were dissolved in ethanol and the concentrations determined using UV spectrophotometry. Serial dilutions were prepared so that a range of drug concentrations could be tested without changing the final concentration of ethanol (≦0.2%) present in the cell cultures.
Human promyelocytic leukemia (HL60) cells were grown in RPMI-1640 medium containing 10% fetal bovine serum. The cells were incubated at 37° C. in the presence of 5% CO2.
HL60 cells were plated at 1.2×10^5 cells/ml. Eighteen hours after plating, cells in duplicate were treated with drug. Four days later, the cells were harvested and a nitro blue tetrazolium reduction assay was performed (Collins et al., 1979; J. Exp. Med. 149:969-974). The percentage of differentiated cells was determined by counting a total of 200 cells and recording the number that contained intracellular black-blue formazan deposits. Verification of differentiation to monocytic cells was determined by measuring phagocytic activity (data not shown).

[3] = target: T1, full-length recombinant rat vitamin D receptor (Rattus norvegicus, UniProt P13053); assay: Vitamin D receptor binding (competition with [3H]-1,25(OH)2D3)
T1 construct: Full-length recombinant rat receptor was expressed in E. coli; histidine tag (C); made in house; host or cells: E. coli BL21 (DE3) Codon Plus RTL
T1 sequence (P13053 1-423): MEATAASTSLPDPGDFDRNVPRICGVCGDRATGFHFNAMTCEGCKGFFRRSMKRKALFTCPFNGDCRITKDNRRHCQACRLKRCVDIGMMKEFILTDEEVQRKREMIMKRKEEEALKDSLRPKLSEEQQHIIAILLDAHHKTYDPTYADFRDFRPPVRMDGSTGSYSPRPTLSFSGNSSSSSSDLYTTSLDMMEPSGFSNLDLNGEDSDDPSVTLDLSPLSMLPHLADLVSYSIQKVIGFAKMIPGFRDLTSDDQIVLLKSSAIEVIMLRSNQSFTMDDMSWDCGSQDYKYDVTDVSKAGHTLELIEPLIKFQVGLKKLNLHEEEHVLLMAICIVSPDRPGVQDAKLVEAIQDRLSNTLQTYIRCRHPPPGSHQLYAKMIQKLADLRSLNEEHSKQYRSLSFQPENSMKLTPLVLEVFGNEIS
Procedure: Full-length recombinant rat receptor was expressed in E. coli BL21 (DE3) Codon Plus RTL cells and purified to homogeneity using two different column chromatography systems. The first system was a nickel affinity resin that utilizes the C-terminal histidine tag on this protein. The protein that was eluted from this resin was further purified using ion exchange chromatography (S-Sepharose Fast Flow). Aliquots of the purified protein were quick frozen in liquid nitrogen and stored at −80° C. until use. For use in binding assays, the protein was diluted in TEDK50 (50 mM Tris, 1.5 mM EDTA, pH7.4, 5 mM DTT, 150 mM KCl) with 0.1% Chaps detergent. The receptor protein and ligand concentration were optimized such that no more than 20% of the added radiolabeled ligand was bound to the receptor.
Radiolabeled and unlabeled ligands were added to 100 mcl of the diluted protein at a final ethanol concentration of ≦10%, mixed and incubated overnight on ice to reach binding equilibrium. The following day, 100 mcl of hydroxylapatite slurry (50%) was added to each tube and mixed at 10-minute intervals for 30 minutes. The hydroxylapaptite was collected by centrifugation and then washed three times with Tris-EDTA buffer (50 mM Tris, 1.5 mM EDTA, pH 7.4) containing 0.5% Titron X-100. After the final wash, the pellets were transferred to scintillation vials containing 4 ml of Biosafe II scintillation cocktail, mixed and placed in a scintillation counter. Total binding was determined from the tubes containing only radiolabeled ligand.

EC50 [1] [nM]	EC50 ([2]; Homo sapiens) [nM]	Ki ([3]; full-length recombinant rat vitamin D receptor, read-out: Ki, competition with [3H]-1,25(OH)2D3 for binding to VDR) [nM]	VDR affinity, times less potent than 1,25-(OH)2D3 ([3]; relative to 1,25-(OH)2D3) [times]	Compound	EC50 [2] [nM]	VDR binding activity (in words) ([3]; FIG. 1)	transcriptional activity in bone cells (in words) [1]	HL-60 cell differentiation activity (in words) ([2]; FIG. 2)	transcription of the 24-hydroxylase gene, times less potent than 1,25-(OH)2D3 ([1]; relative to 1,25-(OH)2D3) [times]	gene transactivation, lower potency than the native hormone ([1]; relative to the native hormone) [fold]	HL-60 cell differentiation, times less potent than the natural hormone ([2]; relative to the natural hormone) [times]
> 1000	> 1000	–	–	C[C@H](CCCC(C)(C)O)C1CCC2/C(=C/C=C3\C[C@@H]4CCC=C4[C@H](O)C3)CCC[C@@]21C (stereo partly drawn) [DO-REVA, 1,2-cyclopentene-25-hydroxy-19-nor-vitamin D3]	–	little to no binding affinity; also recorded: little to no receptor binding activity	weak transcriptional activity; also recorded: measurable transcription activity at the higher concentrations tested; also recorded: measurable transcriptional activity at the higher concentrations tested	little to no ability to induce differentiation; also recorded: little to no cellular differentiation activity	–	–	–
10	30	2	~20	C[C@H](CCCC(C)(C)O)C1CCC2/C(=C/C=C3/C[C@@H]4CCC=C4[C@H](O)C3)CCC[C@@]21C (stereo partly drawn) [DO-REVB, 3,2-cyclopentene-1α-25-dihydroxy-19-nor-vitamin D3]	–	–	weak transcriptional activity	–	~20	2	~10

Compound	EC50 [1] [nM]	EC50 ([2]; Homo sapiens) [nM]	Ki ([3]; full-length recombinant rat vitamin D receptor, read-out: Ki, competition with [3H]-1,25(OH)2D3 for binding to VDR) [nM]	VDR affinity, times less potent than 1,25-(OH)2D3 ([3]; relative to 1,25-(OH)2D3) [times]	EC50 [2] [nM]	VDR binding activity (in words) ([3]; FIG. 1)	transcriptional activity in bone cells (in words) [1]	HL-60 cell differentiation activity (in words) ([2]; FIG. 2)	transcription of the 24-hydroxylase gene, times less potent than 1,25-(OH)2D3 ([1]; relative to 1,25-(OH)2D3) [times]	gene transactivation, lower potency than the native hormone ([1]; relative to the native hormone) [fold]	HL-60 cell differentiation, times less potent than the natural hormone ([2]; relative to the natural hormone) [times]
C=C1/C(=C\C=C2/CCC[C@]3(C)[C@@H]([C@H](C)CCCC(C)(C)O)CC[C@@H]23)C[C@@H](O)C[C@@H]1O [1α,25-dihydroxyvitamin D3, reference compound]	0.2	–	–	–	2	–	–	–	–	–	–
